Results taken from patent US11254686B1 (Corvus Pharmaceuticals, Inc., priority 2017, dated 2022).

Key:
adenosine A2B receptor = adenosine A2B receptor (Homo sapiens (Human), UniProt P29275); test: Adenosine receptor activity assay (Table 1), A2B activity; assay type: biochemical; details: for Ratio: A2A activity to A2B activity (A2A/A2B); for IC50: read-out: Ave A2B cAMP IC50
adenosine A2A receptor = adenosine A2A receptor (Homo sapiens (Human), UniProt P29274); test: Adenosine receptor activity assay (Table 1), A2A activity; assay type: biochemical; details: read-out: Ave A2A cAMP IC50
Chain of adenosine A2A receptor (P29274 whole entry): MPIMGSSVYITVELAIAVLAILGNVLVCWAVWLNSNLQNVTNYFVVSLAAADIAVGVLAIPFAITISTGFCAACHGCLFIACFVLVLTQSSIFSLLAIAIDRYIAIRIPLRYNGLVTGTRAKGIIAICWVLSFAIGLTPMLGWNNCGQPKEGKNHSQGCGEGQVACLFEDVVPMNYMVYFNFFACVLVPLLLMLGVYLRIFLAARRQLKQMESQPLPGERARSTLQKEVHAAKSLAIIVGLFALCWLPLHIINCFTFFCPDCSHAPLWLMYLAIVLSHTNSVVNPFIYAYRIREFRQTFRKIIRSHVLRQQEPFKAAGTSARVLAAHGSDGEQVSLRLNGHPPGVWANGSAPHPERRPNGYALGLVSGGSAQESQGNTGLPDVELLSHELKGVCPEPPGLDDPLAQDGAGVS

adenosine A3 receptor = adenosine A3 receptor (Homo sapiens (Human), UniProt P0DMS8); test: Adenosine receptor activity assay (Table 1), A3 cAMP; assay type: cell-based
Chain of adenosine A3 receptor (P0DMS8 whole entry): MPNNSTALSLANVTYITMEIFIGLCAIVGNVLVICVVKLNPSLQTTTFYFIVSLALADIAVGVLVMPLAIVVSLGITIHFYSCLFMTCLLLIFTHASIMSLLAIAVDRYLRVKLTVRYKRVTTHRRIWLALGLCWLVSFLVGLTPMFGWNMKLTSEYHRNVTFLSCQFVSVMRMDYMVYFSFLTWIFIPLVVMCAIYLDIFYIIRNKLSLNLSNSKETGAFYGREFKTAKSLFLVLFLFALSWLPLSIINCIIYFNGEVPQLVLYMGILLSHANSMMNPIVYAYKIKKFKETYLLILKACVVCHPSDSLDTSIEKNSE

adenosine A1 receptor = adenosine A1 receptor (Homo sapiens (Human), UniProt P30542); test: Adenosine receptor activity assay (Table 1), A1 cAMP; assay type: cell-based
Chain of adenosine A1 receptor (P30542 whole entry): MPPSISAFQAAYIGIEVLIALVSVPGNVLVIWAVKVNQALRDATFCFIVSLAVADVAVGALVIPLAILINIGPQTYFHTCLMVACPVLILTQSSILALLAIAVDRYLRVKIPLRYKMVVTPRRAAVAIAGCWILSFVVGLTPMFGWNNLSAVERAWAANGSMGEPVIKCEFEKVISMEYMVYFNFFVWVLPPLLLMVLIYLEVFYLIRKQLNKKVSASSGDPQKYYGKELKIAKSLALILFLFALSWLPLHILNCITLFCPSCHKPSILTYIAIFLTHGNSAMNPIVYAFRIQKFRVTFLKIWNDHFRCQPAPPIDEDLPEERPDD

Chain of adenosine A2B receptor (P29275 whole entry): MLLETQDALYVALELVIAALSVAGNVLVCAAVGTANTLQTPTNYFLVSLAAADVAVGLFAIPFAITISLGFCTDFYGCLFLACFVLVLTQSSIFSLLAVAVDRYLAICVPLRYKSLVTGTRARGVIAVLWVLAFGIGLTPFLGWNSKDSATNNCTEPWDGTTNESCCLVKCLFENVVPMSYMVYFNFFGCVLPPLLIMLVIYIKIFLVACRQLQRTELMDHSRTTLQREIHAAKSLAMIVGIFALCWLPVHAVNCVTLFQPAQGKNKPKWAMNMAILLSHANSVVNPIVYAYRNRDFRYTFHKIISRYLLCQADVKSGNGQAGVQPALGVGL

Ratio (adenosine A2B receptor) | IC50 (adenosine A2B receptor) [nM] | IC50 (adenosine A2A receptor) [nM] | IC50 (adenosine A3 receptor) [nM] | IC50 (adenosine A1 receptor) [nM] | SMILES
16.27 | 10 to 50 | 100 to 500 | > 500 | > 500 | C[C@H](Nc1nc(C(=O)N2CC[C@@H](CO)C2)c2sccc2n1)c1cccnc1 [Example Z260, ((R)-3-(Hydroxymethyl)pyrrolidin-1-yl)(2-(((S)-1-(pyridin-3-yl)ethyl)amino)thieno[3,2-d]pyrimidin-4-yl)methanone]
9.48 | 10 to 50 | 100 to 500 | > 500 | > 500 | C[C@H](Nc1nc(C(=O)NCC(F)(F)F)c2sccc2n1)c1cncc(F)c1 [Example Z263, (S)-2-((1-(5-Fluoropyridin-3-yl)ethyl)amino)-N-(2,2,2-trifluoroethyl)thieno[3,2-d]pyrimidine-4-carboxamide]
57.63 | < 10 | 50 to 100 | 50 to 100 | 50 to 100 | COC1CN(C(=O)c2nc(N[C@@H](C)c3cncc(F)c3)nc3cc(C)sc23)C1 [Example Z268, (S)-(2-((1-(5-Fluoropyridin-3-yl)ethyl)amino)-6-methylthieno[3,2-d]pyrimidin-4-yl)(3-methoxyazetidin-1-yl)methanone]
9.24 | 10 to 50 | 100 to 500 | > 500 | > 500 | C[C@H](Nc1nc(C(=O)N2CCC[C@@H]2C)c2sccc2n1)c1cncc(F)c1 [Example Z271, (2-(((S)-1-(5-Fluoropyridin-3-yl)ethyl)amino)thieno[3,2-d]pyrimidin-4-yl)((S)-2-methylpyrrolidin-1-yl)methanone]
9.34 | 10 to 50 | 100 to 500 | > 500 | > 500 | C[C@H](Nc1nc(C(=O)N2CCC[C@H]2C)c2sccc2n1)c1cncc(F)c1 [Example Z272, (2-(((S)-1-(5-Fluoropyridin-3-yl)ethyl)amino)thieno[3,2-d]pyrimidin-4-yl)((R)-2-methylpyrrolidin-1-yl)methanone]
24.38 | < 10 | 100 to 500 | > 500 | > 500 | C[C@H](Nc1nc(C(=O)NCCO)c2sccc2n1)c1cncc(F)c1 [Example Z275, (S)-2-((1-(5-Fluoropyridin-3-yl)ethyl)amino)-N-(2-hydroxyethyl)thieno[3,2-d]pyrimidine-4-carboxamide]
92.47 | < 10 | 50 to 100 | 50 to 100 | 50 to 100 | Cc1cc2nc(N[C@@H](C)c3cncc(F)c3)nc(C(=O)N3CCC3)c2s1 [Example Z276, (S)-Azetidin-1-yl(2-((1-(5-fluoropyridin-3-yl)ethyl)amino)-6-methylthieno[3,2-d]pyrimidin-4-yl)methanone]
86.81 | < 10 | 50 to 100 | 50 to 100 | 50 to 100 | Cc1cc2nc(N[C@@H](C)c3cncc(F)c3)nc(C(=O)N3CCCC3)c2s1 [Example Z279, (S)-(2-((1-(5-Fluoropyridin-3-yl)ethyl)amino)-6-methylthieno[3,2-d]pyrimidin-4-yl)(pyrrolidin-1-yl)methanone]
24.55 | < 10 | 10 to 50 | 50 to 100 | 10 to 50 | Cc1cc2nc(N[C@@H](C)c3cncc(F)c3)nc(C(=O)NCC(F)(F)F)c2s1 [Example Z280, (S)-2-((1-(5-Fluoropyridin-3-yl)ethyl)amino)-6-methyl-N-(2,2,2-trifluoroethyl)thieno[3,2-d]pyrimidine-4-carboxamide]
56.67 | < 10 | 50 to 100 | 50 to 100 | 50 to 100 | Cc1cc2nc(N[C@@H](C)c3ccccn3)nc(C(=O)N3CCC3)c2s1 [Example Z284, (S)-Azetidin-1-yl(6-methyl-2-((1-(pyridin-2-yl)ethyl)amino)thieno[3,2-d]pyrimidin-4-yl)methanone]
51.08 | < 10 | 100 to 500 | 50 to 100 | 50 to 100 | Cc1cc2nc(N[C@@H](C)c3ccccn3)nc(C(=O)N3CC(O)C3)c2s1 [Example Z285, (S)-(3-Hydroxyazetidin-1-yl)(6-methyl-2-((1-(pyridin-2-yl)ethyl)amino)thieno[3,2-d]pyrimidin-4-yl)methanone]
26.11 | < 10 | 50 to 100 | > 500 | > 500 | COC1CN(C(=O)c2nc(N[C@@H](C)c3cccnc3)nc3cc(C)sc23)C1 [Example Z286, (S)-(3-Methoxyazetidin-1-yl)(6-methyl-2-((1-(pyridin-3-yl)ethyl)amino)thieno[3,2-d]pyrimidin-4-yl)methanone]
23.71 | 10 to 50 | 100 to 500 | 50 to 100 | > 500 | Cc1cc2nc(N[C@@H](C)c3ccccn3)nc(C(=O)NC[C@H](C)O)c2s1 [Example Z287, N—((S)-2-Hydroxypropyl)-6-methyl-2-(((S)-1-(pyridin-2-yl)ethyl)amino)thieno[3,2-d]pyrimidine-4-carboxamide]
35.51 | < 10 | 100 to 500 | 50 to 100 | > 500 | Cc1cc2nc(N[C@@H](C)c3ccccn3)nc(C(=O)NC[C@@H](C)O)c2s1 [Example Z288, N—((R)-2-Hydroxypropyl)-6-methyl-2-(((S)-1-(pyridin-2-yl)ethyl)amino)thieno[3,2-d]pyrimidine-4-carboxamide]
50.12 | 10 to 50 | > 500 | > 500 | 50 to 100 | C[C@H](Nc1nc(C(=O)NCCO)c2sccc2n1)c1cncc(Cl)c1 [Example Z291, (S)-2-((1-(5-Chloropyridin-3-yl)ethyl)amino)-N-(2-hydroxyethyl)thieno[3,2-d]pyrimidine-4-carboxamide]
60.59 | 10 to 50 | > 500 | 50 to 100 | 50 to 100 | C[C@H](O)CNC(=O)c1nc(N[C@@H](C)c2cncc(Cl)c2)nc2ccsc12 [Example Z292, 2-(((S)-1-(5-Chloropyridin-3-yl)ethyl)amino)-N—((S)-2-hydroxypropyl)thieno[3,2-d]pyrimidine-4-carboxamide]
41.78 | < 10 | 100 to 500 | 50 to 100 | 50 to 100 | C[C@H](Nc1nc(C(=O)NC[C@@H](C)O)c2sccc2n1)c1cncc(Cl)c1 [Example Z293, 2-(((S)-1-(5-Chloropyridin-3-yl)ethyl)amino)-N—((R)-2-hydroxypropyl)thieno[3,2-d]pyrimidine-4-carboxamide]
68.33 | < 10 | 100 to 500 | > 500 | > 500 | C[C@H](Nc1nc(C(=O)N2CC[C@@H](CO)C2)c2sccc2n1)c1cncc(F)c1 [Example Z295, (2-(((S)-1-(5-Fluoropyridin-3-yl)ethyl)amino)thieno[3,2-d]pyrimidin-4-yl)((R)-3-(hydroxymethyl)pyrrolidin-1-yl)methanone]
39.68 | < 10 | 100 to 500 | > 500 | > 500 | Cc1cc2nc(N[C@@H](C)c3cccnc3)nc(C(=O)N3CC(O)C3)c2s1 [Example Z299, (S)-(3-Hydroxyazetidin-1-yl)(6-methyl-2-((1-(pyridin-3-yl)ethyl)amino)thieno[3,2-d]pyrimidin-4-yl)methanone]
21.89 | < 10 | 10 to 50 | 50 to 100 | 50 to 100 | COC1CN(C(=O)c2nc(N[C@@H](C)c3ccccn3)nc3cc(C)sc23)C1 [Example Z300, (S)-(3-Methoxyazetidin-1-yl)(6-methyl-2-((1-(pyridin-2-yl)ethyl)amino)thieno[3,2-d]pyrimidin-4-yl)methanone]
35.54 | < 10 | 50 to 100 | 50 to 100 | > 500 | CO[C@@H]1CCN(C(=O)c2nc(N[C@@H](C)c3cncc(F)c3)nc3cc(C)sc23)C1 [Example Z302, (2-(((S)-1-(5-Fluoropyridin-3-yl)ethyl)amino)-6-methylthieno[3,2-d]pyrimidin-4-yl)((R)-3-methoxypyrrolidin-1-yl)methanone]
38.51 | < 10 | 50 to 100 | > 500 | > 500 | C[C@H](Nc1nc(C(=O)N[C@H]2C[C@@H](O)C2)c2sccc2n1)c1cncc(Cl)c1 [Example Z305, 2-(((S)-1-(5-Chloropyridin-3-yl)ethyl)amino)-N-((1s,3R)-3-hydroxycyclobutyl)thieno[3,2-d]pyrimidine-4-carboxamide]
29.96 | < 10 | 50 to 100 | 50 to 100 | 50 to 100 | Cc1cc2nc(N[C@@H](C)c3cncc(F)c3)nc(C(=O)NCC(C)(C)O)c2s1 [Example Z308, (S)-2-((1-(5-Fluoropyridin-3-yl)ethyl)amino)-N-(2-hydroxy-2-methylpropyl)-6-methylthieno[3,2-d]pyrimidine-4-carboxamide]
37.14 | < 10 | 50 to 100 | > 500 | > 500 | Cc1cc2nc(N[C@@H](C)c3cncc(F)c3)nc(C(=O)N3CC[C@H](CO)C3)c2s1 [Example Z309, (2-(((S)-1-(5-Fluoropyridin-3-yl)ethyl)amino)-6-methylthieno[3,2-d]pyrimidin-4-yl)((S)-3-(hydroxymethyl)pyrrolidin-1-yl)methanone]
